How the values were obtained:
BALB/c mice = assay: Immunity experiment: thymus weight/body weight ratio; type: in vivo; conditions: male BALB/c mice, gavage daily, three months; Example 1 0.50, selenium-enriched yeast 0.05, yeast beta-glucan 0.15, Vitamin C 0.20, Vitamin E 0.10 g/kg·bw
Experimental: (§1) 60 male BALB/c mice of clean grade with body weight 18-22 g were purchased from Shanghai Xipu'er-Bikai Experimental Animal Co., Ltd. (Add: […] Physiological saline was administered to the blank group. Three months later, a plurality of immune index of mice comprising thymus weight/body weight ratio, humoral immunity function (antibody index) and cellular immune function (NK cell activity) were measured. The measurement method was the same as the method for evaluating health food.

spleen cells = assay: Immunity experiment: antibody cell detection (plaque forming cells), humoral immunity function; type: in vivo; conditions: male BALB/c mice, gavage daily, three months; Example 1 0.50, selenium-enriched yeast 0.05, yeast beta-glucan 0.15, Vitamin C 0.20, Vitamin E 0.10 g/kg·bw
Experimental: as §1

NK cell = assay: Immunity experiment: NK cell activity, cellular immune function; type: in vivo; conditions: male BALB/c mice, gavage daily, three months; Example 1 0.50, selenium-enriched yeast 0.05, yeast beta-glucan 0.15, Vitamin C 0.20, Vitamin E 0.10 g/kg·bw
Experimental: as §1

[1] = test system: lipid peroxide (malondialdehyde (MDA)); assay: Anti-oxidation experiment: content of lipid peroxide (MDA); type: in vivo, human
Experimental: (§2) During the experiment, all the volunteers kept original living and dietary habits. […] Subsequently, the content of lipid peroxide (malondialdehyde (MDA)), superoxide dismutase (SOD) activity and glutathione peroxidase (GSH-PX) activity of the volunteers were measured. The measurement method was the same as the method for evaluating health food.

[2] = test system: superoxide dismutase (SOD); assay: Anti-oxidation experiment: SOD activity; type: in vivo, human
Experimental: as §2

[3] = test system: glutathione peroxidase (GSH-PX); assay: Anti-oxidation experiment: GSH-Px activity; type: in vivo, human
Experimental: as §2

[4] = volunteers 45-65 years, before administration (baseline)
[5] = volunteers, after administration two times a day for three months, Example 2 500 mg, selenium-enriched yeast 150 mg, yeast beta-glucan 450 mg, Vitamin C 2.5 mg, Vitamin E 2.5 mg each time

| Compound | Thymus weight/body weight ratio (BALB/c mice) | Antibody cell detection Quantity of plaque forming cells (spleen cells) | NK cell activity (NK cell) | MDA content [1, 4] | MDA content [1, 5] | SOD activity [2, 4] | SOD activity [2, 5] | GSH-Px activity [3, 4] | GSH-Px activity [3, 5] |
| --- | --- | --- | --- | --- | --- | --- | --- | --- | --- |
| O=C1O[C@H]([C@@H](O)CO)C(O)=C1O [Vitamin C] | 1.80 ± 0.57 mg/g | 87 ± 41 /106 spleen cells | 18.18 ± 4.14% | 5.77 ± 0.65 nmol/mL | 5.75 ± 0.60 nmol/mL | 13335.1 ± 1466.6 U/gHb | 13345.5 ± 1472.7 U/gHb | 121.6 ± 15.67 U/mL | 123.7 ± 15.33 U/mL |
| Vitamin E | 1.90 ± 0.33 mg/g | 96 ± 21 /106 spleen cells | 18.02 ± 5.31% | 5.74 ± 0.55 nmol/mL | 5.72 ± 0.65 nmol/mL | 13297.0 ± 2193.7 U/gHb | 13375.6 ± 2014.7 U/gHb | 120.8 ± 13.12 U/mL | 121.9 ± 9.78 U/mL |

— US8883137B2, “Compositions comprising selenium-rich yeast and yeast beta-glucan” (Angel Yeast Co., Ltd., priority 2008, dated 2014)
